Measurements taken from patent US20060177430A1, “Treatment of ocular disorders with ophthalmic formulations containing methylsulfonylmethane as a transport enhancer” (Chakshu Research Inc, priority 2002, published 2006).
Where “and” joins values, the source holds several entries; their conditions need not be identical. Equal values may be shown once. Each block holds one compound with its values, some of them ahead of it.

Assays:
[1] = in the absence of MSM
[2] = EDTA pharmacokinetic study: 14C-EDTA in structures of the rat eye (Example 25)
Description: Objectives. Determine the amount of C-14 labeled EDTA that penetrates into the various structures of the rat eye (cornea, aqueous humor, lens, vitreous, and retina), using eye drops that contain MSM. Carry out a comparison of two different eye drop formulations that differed in their EDTA concentration.
8 μl of Eye Drop 1 was applied to the rats' eyes. […] The eyeballs were quickly washed 6 times in 5 ml of saline each time. Aqueous humor was aspirated from both eyes and dispensed in 50 μl of PBS. Cornea, lens, vitreous and retina from each eye were separated and placed in Eppendorf tubes containing H2O and 10N NaOH in the following ratio:
8 μl of Eye Drop 2 was applied to the rat eye. After 0.5, 2 and 4 hours, the rats were sacrificed and the experiment conducted in the same way as for Eye Drop 1.

in vivo = assay: in vivo
Description: The ocular pharmacokinetic behavior of EDTA, when administered as a component of Formulation 1, was evaluated in rabbits over a period of five days. Two healthy male rabbits, each approximately 2.5 to 3 kg in body weight, were used for the study.
On day 1 of the study, one drop of Formulation 1 was topically instilled in each eye of both rabbits (four eyes total). No additional eye drops were administered during the course of the study. Samples of aqueous humor were extracted at 15 min, 30 min, 1 hr, 4 hrs, 3 days, and 5 days following administration (as indicated in the following table). Vitreous humor was extracted at 5 days following administration from all four eyes. The concentration of EDTA was measured in all the samples of aqueous humor and vitreous humor by HPLC analysis.
In the following in vivo experiment, the ocular pharmacokinetic behavior of EDTA, when administered with MSM as permeation enhancing penetrating agent, was evaluated in rabbits over a period of five days. Two healthy male rabbits, each approximately 2.5 to 3 Kg in body weight, were used for the study.
An eye drop formulation of the invention, was prepared as follows: High purity de-ionized (DI) water (500 ml) was filtered via a 0.2 micron filter. MSM (27 g), EDTA (13 g), and L-carnosine (5 g) were added to the filtered DI water, and mixed until visual transparency was achieved, indicating dissolution. The mixture was poured into 10 ml bottles each having a dropper cap. On a weight percent basis, the eye drops had the following composition: […]

[3] = system: Human lens epithelial cells (HLEC); assay: Cell viability following oxidation-induced toxicity in human lens epithelial cells (Example 27); type: cell-based; conditions: oxidants, 16 hrs; 4 mM MSM, 0.5 mM EDTA
Description: Materials. […] All cell culture medium components were from Invitrogen. Cell Culture and Treatment. […] Cell Viability. Cell survival was determined by Trypan Blue staining and counting with a hemocytometer. Dead cells stain blue, while live cells exclude Trypan Blue. Cell viability is represented as the number of live cells divided by the total number of cells, expressed as a percentage. [[[…]]] Experimental Procedure. 1. Seeded 0.5×10^5/ml of HLEC (Passage 5) into three 12-well plates, incubated at 37° C. for overnight. 2. […] Added the oxidation reagents and MSM and/or EDTA to the proper wells. […] Ferrous ammonium sulfate (FAS) 10 μM, ADP 100 μM, H2O2 100 μM • Fenton': FAS 10 μM, ADP 100 μM, H2O2 100 μM • Ferric Chloride: […]

[4] = @ 79° F.; cited from earlier work
rat lens organ culture = assay: Oxidation-induced toxicity in rat lens organ culture (Example 26); type: cell-based; conditions: 7 days
Description: Materials. […] All cell culture medium components were from Invitrogen. Animals. […] Lens Culture. The rat lenses were dissected and washed with 1% penicillin/streptomycin in sterile PBS. […] The lenses were visualized under a Nikon Eclipse 200 and photographs were taken using a Multidimensional Imaging System. [table] Experimental Procedure. 1. Sacrificed seven rats, removed the eyeballs as soon as possible, and put them into a tube containing PBS with 0.1% gentamicin. 2. Dissected the lenses immediately and washed with PBS. 3. […] Each treatment was performed in 2 wells. Final concentrations for the six treatments were as follows: […] After 7 days of lens culture, took photographs and determined level of light transparency through the lenses.

[5] = not told
Description: (§1) The same study design and experimental setup was used as described in the above experiments.

[6] = 54 mg MSM/ml
Description: as §1

[7] = 5 days after one drop of Formulation 1, per rabbit eye

amount present in the aqueous humor [1]: very little
concentration at 15 min (in vivo; male, rabbit, aqueous humor, topical, 1 drop of Formulation 1 per eye, Concentration of EDTA, aqueous humor, 15 min after one drop of Formulation 1, per rabbit eye, HPLC): 1300 ng/mL
concentration at 30 min (in vivo; male, rabbit, aqueous humor, topical, 1 drop of Formulation 1 per eye, Concentration of EDTA, aqueous humor, 30 min after one drop of Formulation 1, per rabbit eye): 10700 ng/mL
concentration at 1 hr (in vivo; male, rabbit, aqueous humor, topical, 1 drop of Formulation 1 per eye, Concentration of EDTA, aqueous humor, 1 hr after one drop of Formulation 1, per rabbit eye): 5300 ng/mL
concentration at 4 hrs (in vivo; male, rabbit, aqueous humor, topical, 1 drop of Formulation 1 per eye, Concentration of EDTA, aqueous humor, 4 hrs after one drop of Formulation 1, per rabbit eye): 900 ng/mL
concentration at 3 days (in vivo; male, rabbit, aqueous humor, topical, 1 drop of Formulation 1 per eye, Concentration of EDTA, aqueous humor, 3 days after one drop of Formulation 1, per rabbit eye): 500 ng/mL
concentration at 5 days (in vivo; male, rabbit, aqueous humor, topical, 1 drop of Formulation 1 per eye, Concentration of EDTA, aqueous humor, 5 days after one drop of Formulation 1, per rabbit eye): 600 ng/mL
concentration at 30 min (in vivo; male, rabbit, aqueous humor, topical, 1 drop of Formulation 1 per eye, concentration of EDTA in aqueous humor, 30 minutes following administration of Formulation 1): 10700 ng/mL
concentration at 5 days (in vivo; male, rabbit, vitreous humor, topical, 1 drop of Formulation 1 per eye, Concentration of EDTA, vitreous humor, 5 days after one drop of Formulation 1, per rabbit eye): 600 ng/mL
Structure (SMILES): O=C(O)CN(CCN(CC(=O)O)CC(=O)O)CC(=O)O [EDTA, ethylenediamine tetraacetic acid]
dose dependency of nanograms of EDTA in eye structures ([2]; Eye Drop 1 (60.5 mM EDTA) versus Eye Drop 2 (12.5 mM EDTA)): Dose dependency was observed, particularly in the aqueous humor, the cornea, and the lens
distribution among eye structures ([2]; Eye Drop 1, two-hour time point): The majority of the EDTA was found in the aqueous humor
Concentration of EDTA, aqueous humor (in vivo; 3 days after one drop of Formulation 1, per rabbit eye): 0.4 micrograms per milliliter and 0.7 micrograms per milliliter
Concentration of EDTA, aqueous humor (in vivo; [7]): 0.5 micrograms per milliliter and 0.4 micrograms per milliliter
Concentration of EDTA, vitreous humor (in vivo; [7]): 0.5 micrograms per milliliter and 0.7 micrograms per milliliter

Structure (SMILES): CS(C)(=O)=O [MSM, methylsulfonylmethane]
percent cell viability (Trypan Blue) [3]: increased the percent cell viability for all oxidants
water solubility [4]: 34 % w/v
Light transmission through the lens, of control (rat lens organ culture; 1 mM ascorbate + 100 μM hydrogen peroxide, oxidant alone 32%, 4 mM MSM, 0.5 mM EDTA): 57%
Light transmission through the lens, of untreated control (rat lens organ culture; 50 mM glucose, glucose alone 45%, 4 mM MSM, 0.5 mM EDTA): 68%
lens opacification in photographs of the lens culture (rat lens organ culture; glucose or ascorbate plus hydrogen peroxide): mitigated lens opacification by both oxidants

increase of permeation over control [5]: about 2.5%
Structure (SMILES): NCCC(=O)N[C@@H](Cc1cnc[nH]1)C(=O)O [L-carnosine]

effect of MSM on the diffusion rate [6]: no effect
Structure (SMILES): N[C@@H](CCC(=O)N[C@@H](CS)C(=O)NCC(=O)O)C(=O)O [glutathione]
